# Positions of bridges follow the written chain, without caps; N, C: chain ends. No end group written: not given here.
# What was measured:
# [1] = tested on: IK1, encoded by Kir channels; experiment: Block of inward current in voltage-clamp; assay type: cell-based, human; details: hiPSC-CMs cultured in maturation medium
# Experimental: All recordings were performed at RT.
# Cells were superfused with an extracellular solution containing (mM) NaCl 136.8, KCl 4, HEPES 10, CaCl2 2, MgCl2 1, and Glucose 10 (pH adjusted to 7.2 with NaOH) for AP recording and K^+ current whole-cell recording. For whole-cell recording of Na^+ and Ca^2+ currents, the following extracellular solution was used (mM): NaCl 40, KCl 4, NMDG 96.8, HEPES 10, CaCl2 2, MgCl2 1, and Glucose 10 (pH adjusted to 7.2 with HCl); 1 mM of CdCl2 was also added to block L-type Ca^2+ currents when recording Na^+ currents.
# Patch pipettes contained (mM): KCl 150, HEPES 10, EGTA 10, and MgATP 2 (pH adjusted to 7.2 with KOH). For AP recording, perforated patch recording was used, and pipettes were backfilled with a solution containing 50 μg/mL gramicidin (diluted from a 50 mg/mL gramicidin DMSO stock solution). A stock solution of ivabradine was prepared with DMSO. All stock solutions were diluted ≥1:1000 in extracellular solution before use.
# ACC2 = tested on: ACC2; parameters: method as in PMID 12842871; details: ACC2 isoform; cited from earlier work
# iPSC C32 CMs = experiment: Calcium imaging, Fluo-4, with and without isoproterenol; assay type: cell-based, human
# Experimental: (§1) iPSC C32-derived CMs were mounted on glass-bottom organ dishes (MatTek, P35G-1.5-14-c) coated with matrigel and incubated with Fluo-4 (Molecular Probes) at 5 µM for 30 min. Fluo-4 was washed in Tyrode’s solution for 30 min before imaging. Cells were placed in Tyrode’s solution containing CaCl2: 1.8 mM; NaCl: 130 mM; KCl: 5.4 mM; HEPES: 25 mM; MgCl2·6H2O: 0.5 mM; NaH2PO4: 0.4 mM; pH 7.4 at 37 °C for imaging. CMs were paced at 1 Hz and live imaging was recorded at 98 fps using a Nikon Eclipse with a Yokogawa CSU-X1 spinning disk and an EM-CCD Andor camera for high-speed acquisition. Individual whole-cell calcium transient intensities were analyzed in R software (V4.3.1). iCell CMs^2 were plated in 96-well CellCarrier Ultra Phenoplates (PerkinElmer) coated with fibronectin and stained with the EarlyTox^TM Cardiotoxicity kit (Molecular Devices, San Jose, CA, USA), following the manufacturer’s recommendations. Calcium transients were analyzed in the FDSS/µCell system (Hamatsu Photonics, Hamamatsu, Japan). Data were analyzed using FDSS Wavefront Analysis Software (V.1.2.2E). Isoproterenol was used at a final concentration of 1 µM. Calcium transients are calculated as ∆F/F0, with signal leveling and background normalization, where F0 is background fluorescence and F is fluorescence intensity. For each cell, amplitude (peak intensity), upstroke velocity, decay velocity, and peak width at 70% duration (PWD70%) were calculated.
# HiPSC-C32 CMs cultured in
# Data are presented as mean
# E. Representative fluorescent images
# ACC2i, and maturation medium. Scale bars: 20µm.
# Figure S6. Maturation medium enhances response to hERG blockers. AP recordings were obtained […]
# antiarrhythmic known to specifically block hERG.
# ACC1 = tested on: ACC1; parameters: method as in PMID 12842871; details: ACC1 isoform; cited from earlier work
# hiPSC-CMs [2] = experiment: Seahorse bioenergetics (Mito Stress test, etomoxir FAO); assay type: cell-based, human; details: maturation medium versus maturation medium without ACC2i
# Experimental: The Seahorse XF96 extracellular flux analyzer (Agilent, Santa Clara, CA, USA) was used to assess mitochondrial function. Seahorse plates were coated with fibronectin, and hiPSC-CMs were seeded onto the plates at a density of 30,000 cells per well. Culture medium was exchanged for Agilent Seahorse XF RPMI Basal Medium supplemented with 5.5 mM glucose, 2 mM glutamine, 150 µM sodium pyruvate, 100 µM Palmitate/BSA, and 5 mM Hepes, 1 h before the assay and for the duration of the measurement. For the Mito Stress test, mitochondria inhibitors were injected during the measurements as follows: Oligomycin (2 µM), 2.4-Dinitrophenol (DNP, 225 µM), rotenone, and antimycin A (both at 1.11 µM). The oxygen consumption rate (OCR) and extracellular acidification rate (ECAR) values were normalized to the number of nuclei per well quantified by Hoechst staining and fluorescence imaging. The baseline OCR was defined as the average values measured from time points 2 to 4 during the experiments subtracting the non-mitochondrial oxygen consumption rate determined as the minimum rate measurement after rotenone/antimycin A injection. Spare respiratory capacity was calculated as the difference between uncoupler DNP and baseline OCR values. ATP production was calculated by subtracting the minimum rate measurement after Oligomycin injection from the last rate measurement before Oligomycin injection. Proton leak was calculated by subtracting non-mitochondrial OCR from the minimum rate measurement after Oligomycin injection. Lastly, oxidation of exogenous FA was measured after injection of 50 µM Etomoxir. OCR due to FA oxidation was determined by subtracting the minimum rate measurement after Etomoxir injection from the last rate measurement before Oligomycin injection. All wells with a basal respiratory rate below 40 pmol/min were excluded from analysis.
# hiPSC-CMs [3] = experiment: hiPSC-CM viability by number of nuclei; assay type: cell-based, human; details: number of nuclei after 7 days in culture
# Experimental: We initially investigated the impact of increasing concentrations of the ACC inhibitor CP640186 (hereafter referred to as ACC2i, given the predominant expression of ACC2 in CMs) on hiPSC-CM viability. […] Based on these initial results, a concentration of 5 uM was selected for further examination of the role of ACC2i in improving hiPSC-CM maturation.
# Figure S1. ACC2 inhibition enhances fatty acid oxidation. Increasing concentrations of ACC2 inhibition are toxic for hiPSC-CMs at concentrations exceeding 5uM. A. Schematic showing signaling cascade and mode of action of acetyl-CoA carboxylase (ACC). There are 2 ACC isoforms: ACC1 in cytosol that is dedicated to the rate limiting step of de novo lipogenesis, and ACC2 a mitochondrial membrane […]
# palmitoyltransferase (CPT-1), responsible for long-chain fatty-acid transport into mitochondria.
# Combined ACC1 and 2 inhibition is expected to reduce malonyl-CoA levels and de-novo lipogenesis, and to enhance CPT-1 activity and fatty acid oxidation (FAO). G-6-P (glucose-6-phosphate), TCA cycle (tricarboxylic acid cycle), ETC (electron transport chain). B. Impact of increasing doses of ACC2i on hiPSC-CMs viability assessed by number of nuclei after 7 days in culture.
# ACC2i concentrations higher than 5 µm. Source of mitochondria image: Servier Medical Art. Statistical […]
# (1 picture or pasted object on this page, not shown here)
# iCell CMs^2 = experiment: Calcium transients, EarlyTox dye, FDSS; assay type: cell-based, human; details: maturation medium vs maturation medium without ACC2i
# Experimental: as §1
# hiPSC-CMs [4] = experiment: In vitro hypertrophy model, ET-1 stimulation; assay type: cell-based, human; details: 10 nM ET-1, 48 h
# Experimental: After 2 weeks in either standard or maturation media, medium was switched to hypertrophy stimulation medium composed of RPMI no glucose supplemented with B27 plus insulin, 5.5 mM glucose and 10 nM endothelin-1 (ET-1, E7764). hPSC-CMs were cultured for 48 h in this medium before their use for further analyses.
# Cell area, circularity index, and aspect ratio were determined with FIJI (ImageJ v.2.14.0) software using standard analysis plugins. For each condition, at least 60 cells were analyzed.
# RNA extraction was performed using the Agencourt RNAdvance Cell V2 kit (catalog no. A47942, Beckman Coulter, Bromma, Sweden) according to the manufacturer’s instructions. RNA quality was assessed using the Fragment Analyzer Standard Sensitivity RNA kit from Agilent Technologies, ensuring an RNA integrity number greater than 7. Library preparation for iCell cardiomyoctes^2 and Chips22 derived CMs was performed at the NGI (National Genomic Infrastructure, KTH, Stockholm, Sweden) using the Illumina TruSeq stranded mRNA library preparation kit. Clustering was conducted by ‘cBot’, and sequencing was performed on a NovaSeq 6000 (NovaSeq Control Software 1.6.0/RTA v3.4.4) with a 2 × 150 setup using the ‘NovaSeqXp’ workflow in the ‘S4’ flowcell. […] Sequenced reads were quality-controlled with the FastQC software and pre-processed with Trim Galore. Processed reads from iCell cardiomyocytes^2 and Chips22 were aligned to the reference genome GRCh37 with the STAR aligner, and Tophat2 with Bowties was used to map IPS C32 reads to GRCh38. Read counts for the genes were generated using the featureCounts library and normalized FPKM values calculated with StringTie. […]
# Differences in gene expression were identified using the DESeq2 method. The analysis was based on read counts, which are required to assess the measurement precision accurately. […]
# [5] = 1 µM isoproterenol, maturation medium compared to maturation medium without ACC2i
compound,measurement,setting,value
"[Ba+2].[Cl-].[Cl-] [Ba^2+, BaCl2]",block of inward current,[1]; 100 µM Ba2+,> 90%
O=C(c1c2ccccc2cc2ccccc12)N1CCC(N2CCC[C@@H](C(=O)N3CCOCC3)C2)CC1 [CP-640186],IC50,ACC2,~0.055 µM
same,calcium transient amplitude and kinetics,iPSC C32 CMs; with ACC2i vs without,significantly improved
same,IC50,ACC1,~0.055 µM
same,FAO reliance (change in basal respiration upon etomoxir),hiPSC-CMs [2],significantly increased
same,increase in reserve capacity,hiPSC-CMs [2]; 5 µM ACC2i,1.7 fold
same,reduction in energy dissipation through proton leak,hiPSC-CMs [2]; 5 µM ACC2i,2.5 fold
same,ACC2i concentration resulting in a decrease in the number of nuclei (potential cardiac toxicity),hiPSC-CMs [3],exceeding 5 uM
same,calcium transient duration,iCell CMs^2,reduction
same,calcium uptake and decay kinetics,iCell CMs^2,significant enhancement
same,transient calcium amplitude,iCell CMs^2,no change
CC(C)NCC(O)c1ccc(O)c(O)c1 (centres unmarked) [isoproterenol],increase in amplitude upon stimulation,iPSC C32 CMs; [5],significantly higher increase
same,increase in beat rate upon stimulation,iPSC C32 CMs; [5],significantly higher increase
COc1cc2c(cc1OC)CC(=O)N(CCCN(C)C[C@H]1Cc3cc(OC)c(OC)cc31)CC2 [ivabradine],block of inward current,[1]; 10 µM ivabradine,~ 5%
"endothelin-1 (CSCSSLMDKECVYFCHLDIIW; disulfide 1-15, 3-11; ends not checked; UniProt P05305 53-73, looked up) [ET-1]",structural changes,hiPSC-CMs [4]; cells cultured in standard medium,no significant structural changes
same,cell area,hiPSC-CMs [4]; maturation medium group,trend towards increased
same,length-to-width ratio,hiPSC-CMs [4]; maturation medium group,significant decrease

# From PMC11352932, “Enhancing Maturation and Translatability of Human Pluripotent Stem Cell-Derived Cardiomyocytes through a Novel Medium Containing Acetyl-CoA Carboxylase 2 Inhibitor” (Cells, 2024)
